Patent US20030144346A1, “Methods and compositions for regulation of 5-alpha reductase activity” (priority 1997, published 2003)
Like-named read-outs stand apart in the source and are kept apart here.

Key:
[1] = target: T1, type 1 human 5α-reductase (HRED1) (Homo sapiens, UniProt P18405); assay: Cell free assay of 5α-reductase, microsomes of rat 1A cells expressing type 1 isoenzyme (HRED1); assay type: biochemical; set-up: expressed in transfected cells; host or cells: rat 1A cells infected with pMV7 retrovirus; microsomes;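 note: microsomes from rat 1A cells expressing human type 1 5α-reductase, conversion of radiolabeled testosterone to dihydrotestosterone quantified by thin layer chromatography with radioanalytic scanning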
T1 sequence (P18405 1-259): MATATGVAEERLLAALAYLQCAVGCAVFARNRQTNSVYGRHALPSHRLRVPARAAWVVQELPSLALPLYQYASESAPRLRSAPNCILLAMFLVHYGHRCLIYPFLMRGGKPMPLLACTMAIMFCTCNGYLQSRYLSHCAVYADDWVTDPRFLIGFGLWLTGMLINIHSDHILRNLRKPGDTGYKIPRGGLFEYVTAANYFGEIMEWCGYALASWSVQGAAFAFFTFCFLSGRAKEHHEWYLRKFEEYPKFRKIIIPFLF

[2] = target: T2, type 2 human 5α-reductase (HRED2) (Homo sapiens, UniProt P31213); assay: Cell free assay of 5α-reductase, microsomes of rat 1A cells expressing type 2 isoenzyme (HRED2); assay type: biochemical; set-up: expressed in transfected cells; host or cells: rat 1A cells infected with pMV7 retrovirus; microsomes;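 note: labeled testosterone and its product dihydrotestosterone measured in microsomal reaction extracts via thin layer chromatography plus radioanalytic scanning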
T2 sequence (P31213 1-254): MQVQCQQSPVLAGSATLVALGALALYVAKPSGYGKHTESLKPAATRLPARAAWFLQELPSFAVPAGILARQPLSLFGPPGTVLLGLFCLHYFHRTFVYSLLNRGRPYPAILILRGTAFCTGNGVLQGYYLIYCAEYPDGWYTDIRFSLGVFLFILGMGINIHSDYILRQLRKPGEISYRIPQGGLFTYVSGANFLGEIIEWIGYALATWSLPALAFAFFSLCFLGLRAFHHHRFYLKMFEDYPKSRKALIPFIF

[3] = 100 uM, cell free assay, Table 2, read-out: HRED1 % Inhibition @ 100 uM
[4] = cell free assay, Table 2 catechols, read-out: HRED1 IC50
[5] = 100 uM, cell free assay, Table 2, read-out: HRED2 % Inhibition @ 100 uM
[6] = 100 uM, cell free assay, Table 3, read-out: HRED1 % Inhibition @ 100 uM
[7] = cell free assay, Table 3 curcumin and related compounds, read-out: HRED1 IC50
[8] = 100 uM, cell free assay, Table 3, read-out: HRED2 % Inhibition @ 100 uM
[9] = 100 uM, cell free assay, Table 1
[10] = cell free assay, Table 1 flavanoids, read-out: HRED1 IC50
[11] = cell free assay, Table 1 flavanoids, read-out: HRED2 IC50
[12] = 100 μM, cell free assay, Table 4, read-out: HRED1 % Inhibition @ 100 μM
[13] = cell free assay, Table 4 quinones, read-out: HRED1 IC50
[14] = 100 μM, cell free assay, Table 4, read-out: HRED2 % Inhibition @ 100 μM
[15] = cell free assay, Table 4 quinones, read-out: HRED2 IC50
[16] = 100 μM, cell free assay, Table 4
[17] = cell free assay, Table 2 catechols, read-out: HRED2 IC50
[18] = 100 uM, cell free assay, Table 2
[19] = cell-free assay, read-out: IC50, type 1 isoenzyme
[20] = read-out: IC50, type 2 isoenzyme
[21] = 100 uM, cell free assay, Table 3

`O=C1C=CC(=C(c2ccc(O)c(O)c2)c2ccccc2S(=O)(=O)O)C=C1O` (mixture of isomers) [Pyrocatechol Violet] showed an inhibition at 100 µM [1, 3] of 85%, an IC50 [1, 4] of 48 µM and an inhibition at 100 µM [2, 5] of 47%.

In the case of `COc1cc(C=CC=O)ccc1O` [4-hydroxy-3-methoxycinnamaldehyde], the inhibition at 100 µM [1, 6] is reported as 10%, the IC50 [1, 7] is reported as > 100 µM and the inhibition at 100 µM [2, 8] is reported as -60%. For the same compound, the IC50 ([2]; read-out: HRED2 IC50) was > 100 µM.

`O=c1cc(-c2ccccc2)oc2c1ccc1ccccc12` [Alpha-napthoflavone] was tested, and the “HRED1 % Inhibition @ 100 uM” value [1, 9] was 6%, the IC50 [1, 10] was > 100 µM and the “HRED2 % Inhibition @ 100 uM” value [2, 9] was “(−13) %”. The IC50 [2, 11] was > 100 µM.

In the case of `O=C1c2ccc(O)cc2C(=O)c2ccc(O)cc21` [Anthraflavic Acid], the inhibition at 100 µM [1, 12] is reported as 27%, the IC50 [1, 13] is reported as > 100 µM and the inhibition at 100 µM [2, 14] is reported as 22%. The IC50 [2, 15] was > 100 µM.

With `O=C1c2ccccc2C(=O)c2ccccc21` [Anthraquinone] the IC50 [1] was > 100 µM, the inhibition at 100 µM ([1]; read-out: HRED1 % Inhibition @ 100 μM) was 6% and the IC50 ([1]; read-out: HRED1 IC50, cell free assay, Table 4 quinones) was > 100 µM. For the same compound, the IC50 [2] was > 100 µM, the inhibition at 100 µM ([2]; read-out: HRED2 % Inhibition @ 100 μM) was 9% and the IC50 ([2]; read-out: HRED2 IC50, cell free assay, Table 4 quinones) was > 100 µM.

In the case of `O=C1c2cccc(O)c2C(=O)c2cccc(O)c21` [Anthrarufin], the “HRED1 % Inhibition @ 100 μM” value [1, 16] is reported as 67%, the inhibition at 100 µM [1, 12] is reported as 67% and the IC50 [1, 13] is reported as 40 µM. The “HRED2 % Inhibition @ 100 μM” value [2, 16] was 13%, the inhibition at 100 µM [2, 14] was 13% and the IC50 [2, 15] was > 100 µM.

In the case of `O=c1cc(-c2ccccc2)oc2ccc3ccccc3c12` [Beta-napthoflavone], the “HRED1 % Inhibition @ 100 uM” value [1, 9] is reported as 3%, the IC50 [1, 10] is reported as > 100 µM and the “HRED2 % Inhibition @ 100 uM” value [2, 9] is reported as 4%. For the same compound, the IC50 [2, 11] was > 100 µM.

Compound `O=c1c(Br)cc2c(-c3ccccc3S(=O)(=O)O)c3cc(Br)c(O)c(O)c3oc-2c1O` [Bromopyrogallol Red] has an inhibition at 100 µM [1, 3] of 98%, an IC50 [1, 4] of 7 µM and an inhibition at 100 µM [2, 5] of 58%. It also gave an IC50 [2, 17] of 84 µM.

For `COc1cc(CNC(=O)CCCC/C=C/C(C)C)ccc1O` [Capsaicin], the IC50 [1] was > 100 µM, the inhibition at 100 µM [1, 6] was 0% and the IC50 [1, 7] was > 100 µM. The IC50 [2] was > 100 µM, the inhibition at 100 µM [2, 8] was 8% and the IC50 ([2]; read-out: HRED2 IC50) was > 100 µM.

In the case of `O=c1cc(-c2ccccc2)oc2cc(O)cc(O)c12` [Chrysin], the IC50 [1, 10] is reported as > 100 µM and the IC50 [2, 11] is reported as > 100 µM.

For `OC1c2ccccc2-c2ccccc2C1O` (stereo not drawn) [Cnc], the “HRED1 % Inhibition @ 100 uM” value [1, 18] was 42%, the IC50 [1, 4] was > 100 µM and the “HRED2 % Inhibition @ 100 uM” value [2, 18] was “(−75) %”. For the same compound, the IC50 [2, 17] was > 100 µM.

`COC1=C(OC)C(=O)C(C/C=C(\C)CC/C=C(\C)CC/C=C(\C)CC/C=C(\C)CC/C=C(\C)CC/C=C(\C)CC/C=C(\C)CC/C=C(\C)CC/C=C(\C)CCC=C(C)C)=C(C)C1=O` [Coenzyme q] was tested, and the “HRED1 % Inhibition @ 100 μM” value [1, 16] was 77%, the IC50 [1, 13] was 12 µM and the “inhibitory activity against type 1 isoenzyme, in words” value ([1]; cell-free assay) was “potent cell-free inhibitors”. For the same compound, the “HRED2 % Inhibition @ 100 μM” value [2, 16] was 81%, the IC50 [2, 15] was 22 µM and the “inhibitory activity against type 2 isoenzyme, in words” value ([2]; cell-free assay) was “potent cell-free inhibitors”.

For `COc1cc(/C=C/CO)ccc1O` [Coniferol], the IC50 [1, 7] was > 100 µM, the IC50 [1, 19] was > 100 µM and the IC50 [2, 20] was > 100 µM.

`CC(/C=C/C=C(\C)C(=O)O)=C\C=C\C=C(C)\C=C\C=C(/C)C(=O)O` [Crocetin] was tested, and the IC50 ([1]; cell free assay, Table 6 fatty acids, read-out: HRED1 IC50) was 7 µM and the IC50 ([2]; cell free assay, Table 6 fatty acids, read-out: HRED2 IC50) was > 100 µM.

For `COc1cc(CCC(=O)CC(=O)CCc2ccc(O)cc2)ccc1O` [Demethoxytetrahydrocurcumin], the “HRED1 % Inhibition @ 100 uM” value [1, 21] was 23%, the IC50 [1, 7] was > 100 µM and the “HRED2 % Inhibition @ 100 uM” value [2, 21] was 42%. The IC50 ([2]; cell free assay, Table 3 curcumin and related compounds, read-out: HRED2 IC50) was > 100 µM.

For `O=c1oc2c(O)c(O)cc3c(=O)oc4c(O)c(O)cc1c4c23` [Ellagic Acid], the inhibition at 100 µM [1, 3] was 7%, the IC50 [1, 4] was > 100 µM and the inhibition at 100 µM [2, 5] was 9%. The IC50 [2, 17] was > 100 µM.

For `C=CCc1ccc(O)c(OC)c1` [Eugenol], the IC50 [1, 7] was > 100 µM, the IC50 [1, 19] was > 100 µM and the inhibition at 100 µM ([1]; read-out: HRED1 % Inhibition @ 100 uM) was 0%. For the same compound, the inhibition at 100 µM ([2]; read-out: HRED2 % Inhibition @ 100 uM) was 50% and the IC50 [2, 20] was > 100 µM.

In the case of `O=c1ccc2cc(O)c(O)cc2o1` [Exculetin], the “HRED1 % Inhibition @ 100 uM” value [1, 18] is reported as 7%, the IC50 [1, 4] is reported as > 100 µM and the “HRED2 % Inhibition @ 100 uM” value [2, 18] is reported as 13%. For the same compound, the IC50 [2, 17] was > 100 µM.
